Columns and labels:
BChE = BChE (Equus caballus, UniProt P81908); format: biochemical, equine
[1] = molecular target: AChE purified from Electrophorus electricus (Electric eel) (Electrophorus electricus, UniProt O42275); experiment: biochemical; format: biochemical
BoNT/A induced paralysis = conditions: cited from earlier work
cholinergic esterases = format: biochemical
[2] = in vivo; cited from earlier work
AChE [3] = molecular target: AChE (Electrophorus electricus, UniProt O42275); format: biochemical
AChE [4] = conditions: cited from earlier work

AChE purified from Electrophorus electricus (Electric eel), sequence (O42275 24-633): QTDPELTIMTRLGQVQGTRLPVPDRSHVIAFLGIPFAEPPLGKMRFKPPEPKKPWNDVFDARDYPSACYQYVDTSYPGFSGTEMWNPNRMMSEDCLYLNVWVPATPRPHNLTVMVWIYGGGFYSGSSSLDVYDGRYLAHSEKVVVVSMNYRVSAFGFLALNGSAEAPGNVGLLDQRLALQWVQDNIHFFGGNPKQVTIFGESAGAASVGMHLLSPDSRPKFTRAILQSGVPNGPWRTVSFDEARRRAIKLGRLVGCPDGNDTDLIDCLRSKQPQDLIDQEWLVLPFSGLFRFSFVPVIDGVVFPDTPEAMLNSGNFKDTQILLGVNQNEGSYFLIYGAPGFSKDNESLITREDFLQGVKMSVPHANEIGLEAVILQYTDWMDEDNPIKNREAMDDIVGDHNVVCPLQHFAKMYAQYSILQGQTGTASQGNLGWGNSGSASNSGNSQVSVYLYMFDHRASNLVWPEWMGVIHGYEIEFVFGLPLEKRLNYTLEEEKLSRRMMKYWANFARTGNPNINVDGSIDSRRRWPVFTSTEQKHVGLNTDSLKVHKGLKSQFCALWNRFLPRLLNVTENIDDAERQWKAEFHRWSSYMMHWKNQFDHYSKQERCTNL
BChE, sequence (P81908 whole entry): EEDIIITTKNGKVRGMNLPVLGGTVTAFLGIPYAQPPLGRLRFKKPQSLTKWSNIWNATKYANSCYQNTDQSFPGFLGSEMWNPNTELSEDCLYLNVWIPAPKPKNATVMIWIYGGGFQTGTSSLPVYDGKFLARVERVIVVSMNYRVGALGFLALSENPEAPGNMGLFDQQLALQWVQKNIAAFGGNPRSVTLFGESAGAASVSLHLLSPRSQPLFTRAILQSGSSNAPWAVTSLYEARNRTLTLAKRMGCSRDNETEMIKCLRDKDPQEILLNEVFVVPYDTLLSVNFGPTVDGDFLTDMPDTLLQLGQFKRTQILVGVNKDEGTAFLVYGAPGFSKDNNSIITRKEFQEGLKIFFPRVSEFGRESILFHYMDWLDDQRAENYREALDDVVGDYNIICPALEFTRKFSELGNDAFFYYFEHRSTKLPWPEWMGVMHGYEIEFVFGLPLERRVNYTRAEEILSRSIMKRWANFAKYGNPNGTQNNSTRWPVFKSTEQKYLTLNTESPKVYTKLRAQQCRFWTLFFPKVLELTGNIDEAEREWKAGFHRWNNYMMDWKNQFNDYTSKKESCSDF
AChE (Electrophorus electricus, UniProt O42275), sequence (O42275 24-633): as the sequence (O42275 24-633) above

SMILES: CCC(=O)Oc1ccc(COC(=O)Nc2ccncc2N)cc1 [Compound 6b]
- apparent kcat relative to natural substrate BCh (BChE): approximately 10^−4
- binding to AChE more tightly than Km for ACh [1]: 100 fold
- selectivity of AChE over BChE (in words) [1]: moderate selectivity

SMILES: CC(C)C(=O)Oc1ccc(COC(=O)Nc2ccncc2N)cc1 [Compound 6d]
- apparent kcat relative to natural substrate BCh (BChE): approximately 10^−4
- binding to AChE more tightly than Km for ACh [1]: 100 fold
- selectivity of AChE over BChE (in words) [1]: moderate selectivity

SMILES: C#CC[n+]1ccc(N)c(N)c1 [3,4-diamino-1-(prop-2-ynl)pyridinium]
- paralysis reversal (in words) (BoNT/A induced paralysis): paralysis reversal

SMILES: COC(=O)Nc1ccncc1N [Compound 19]
- enzymatic generation of 3,4-DAP (in words) (cholinergic esterases): failed as pseudosubstrates to generate 3,4-DAP enzymatically

SMILES: Nc1ccncc1N [3,4-DAP, 3,4-diaminopyridine]
- toxicity issues at high doses (in words) [2]: seizures

SMILES: CC(C)OC(=O)CCC(=O)Nc1ccncc1N [Compound 32]
- half-life in mouse sera: 2.8 h
- release of 3,4-DAP upon incubation with AChE (in words) (AChE [3]): negligible release of 3,4-DAP
- Ki [1]: 3 µM
- selectivity of AChE over BChE (in words) [1]: inhibited AChE selectively over BChE

SMILES: Nc1ccncc1 [4-AP, 4-aminopyridine]
- toxicity issues at high doses (in words) [2]: seizures

SMILES: CC(=O)Nc1ccncc1N [Compound 21]
- release of 3,4-DAP upon incubation with AChE (in words) (AChE [3]): did not undergo internal release
- kinetic mechanism of inhibition of AChE [1]: competitive inhibition

SMILES: Nc1cncc(N)c1N [3,4,5-triaminopyridine]
- paralysis reversal (in words) (BoNT/A induced paralysis): paralysis reversal

SMILES: CC(=O)OCC[N+](C)(C)C [ACh, acetylcholine]
- Km (AChE [4]): 400 µM

SMILES: COC(=O)Nc1ccncc1NC(=O)OC [Compound 17]
- enzymatic generation of 3,4-DAP (in words) (cholinergic esterases): failed as pseudosubstrates to generate 3,4-DAP enzymatically

SMILES: COC(=O)Nc1cnccc1N [Compound 16]
- enzymatic generation of 3,4-DAP (in words) (cholinergic esterases): failed as pseudosubstrates to generate 3,4-DAP enzymatically
